Data on seven compounds can be found in patent US20070154882A1, “Beta-polypeptides that inhibit cytomegalovirus infection” (priority 2005, published 2007).

The test system of data set [1] is HCMV membrane fusion (nuclear localization of pp65) in NHDF cells. The data set can be described thus: pp65 translocation (virion content delivery) assay. It is filed as cell-based. The note with it: HCMV diluted with 100 µM beta-peptide; 4° C. 90 min, then 37° C. 35 min. On the procedure:
NHDF cells were grown on glass cover-slips in 12-well plates as above. The HCMV was diluted with 100 µM beta-peptide in SF-DMEM and cooled to 4° C. The treatment was then added to cooled cells, which were incubated at 4° C. for 90 min, assuring viral attachment but not entry. The cells were then transferred to 37° C. for 35 min. The cells were then fixed in 3% paraformaldehyde and immunostained for pp65 as described (Lopper, M.; Compton, T. (2004) in J. Virol. Vol. 78, pp. 8333-8341). Images were taken on the Nikon Eclipse TE2000-S with appropriate filters, using consistent exposure times.
The infectivity assays used in these Examples measures immediate early gene expression; immediate early (IE) proteins are the first viral proteins expressed in infected cells. Inhibition of viral gene expression could reflect interference at a variety of points in the virus life cycle such as inhibition of IE gene transcription or translation. A virion content delivery assay was performed to test whether the beta-peptides act at the viral entry stage, as they have been designed to do. Immediately upon membrane fusion, the phosphoprotein-rich tegument layer of the virus is released into the cytoplasm of the target cell. The pp65 protein, highly abundant in the virion tegument, diffuses rapidly to the nucleus after membrane fusion. […]

Regarding `CC(=O)NC[C@H](Cc1ccc(O)cc1)C(=O)NC1CCCC1C(=O)NC1CNCC1C(=O)NC1CNCC1C(=O)N[C@H](CC(=O)NC1CNCC1C(=O)NC1CNCC1C(=O)NC1CCCC1C(=O)NC[C@H](CC(C)C)C(=O)NC1CNCC1C(=O)NC1CCCC1C(=O)N[C@H](CC(=O)N[C@H](CC(N)=O)Cc1ccccc1)C(C)C)CC(C)C` (some centres unmarked) [ERP-II-005], the toxicity toward fibroblasts entry in the data set with NHDF cells was “highly toxic”. In addition, the “disruption of cell membranes” value in the data set with human red blood cells is “does not simply disrupt cell membranes”.
With `CC(=O)NC1CCCC1C(=O)N[C@H](CC(=O)NC1CCCC1C(=O)NC[C@H](CC(C)C)C(=O)NC1CNCC1C(=O)NC1CNCC1C(=O)N[C@H](CC(=O)NC1CCCC1C(=O)NC[C@H](Cc1ccc(O)cc1)C(=O)NC1CNCC1C(=O)NC1CNCC1C(=O)N[C@H](CC(=O)NC1CNCC1C(N)=O)Cc1cccc2ccccc12)Cc1ccccc1)CC(C)C` (some centres unmarked) [EPE-II-227], in the data set on NHDF cells, the “Cytotoxicity, as indicated by P1 uptake” value is reported as “Toxic”.
For the compound `CC(=O)NC1CCCC1C(=O)N[C@H](CC(=O)NC1CCCC1C(=O)NC[C@H](CC(C)C)C(=O)NC1CNCC1C(=O)NC1CNCC1C(=O)N[C@H](CC(=O)NC1CCCC1C(=O)NC[C@H](Cc1ccc(O)cc1)C(=O)NC1CNCC1C(=O)NC1CNCC1C(=O)N[C@H](CC(=O)NC1CNCC1C(N)=O)Cc1ccc2ccccc2c1)Cc1ccccc1)CC(C)C` (some centres unmarked) [EPE-II-225], the “Cytotoxicity, as indicated by P1 uptake” value in the data set on NHDF cells is reported as “Toxic”.
Take heparin: in data set [1], the “nuclear localization of pp65” value is “eliminates pp65 accumulation in the nucleus”.
One may read the melting point as the temperature, or range, at which the solid turns liquid. As to `CNC(=O)C[C@H](C)NC(=O)COC(=O)[C@H]1CCCN1C(=O)CC(Cc1ccccc1)NC(C)=O` (some centres unmarked), the melting point was in the range of 128 to 129 °C.
As to `CC(=O)NC1CCCC1C(=O)N[C@H](CC(=O)NC1CCCC1C(=O)NC[C@H](CC(C)C)C(=O)NC1CNCC1C(=O)NC1CNCC1C(=O)N[C@H](CC(=O)NC1CCCC1C(=O)NC[C@H](Cc1ccc(O)cc1)C(=O)NC1CNCC1C(=O)NC1CNCC1C(=O)N[C@H](CC(=O)NC1CNCC1C(N)=O)C(C)C)Cc1ccc2ccccc2c1)CC(C)C` (some centres unmarked) [EPE-II-231], the “Cytotoxicity, as indicated by P1 uptake” value in the data set on NHDF cells is “Toxic”.
Still for that read-out and setting: the same measure for `CC(=O)NC1CCCC1C(=O)N[C@H](CC(=O)NC1CCCC1C(=O)NC[C@H](CC(C)C)C(=O)NC1CNCC1C(=O)NC1CNCC1C(=O)N[C@H](CC(=O)NC1CCCC1C(=O)NC[C@H](Cc1ccc(O)cc1)C(=O)NC1CNCC1C(=O)NC1CNCC1C(=O)N[C@H](CC(=O)NC1CNCC1C(N)=O)C(C)C)Cc1cccc2ccccc12)CC(C)C` (some centres unmarked) [EPE-II-233]: “Toxic”.
